Test results: publication PMC8573827, “Zinc protoporphyrin binding to telomerase complexes and inhibition of telomerase activity” (Pharmacology Research & Perspectives, 2021)

Legend:
Hek293 cells [1] = assay: DNA synthesis, 3H-thymidine incorporation, Hek293; format: cell-based, human; conditions: Hek293, 10 µM MPP, 24–72 h
Description: (§1) Semi‐quantitative differences in DNA synthesis were determined by measuring ^3H‐thymidine uptake into whole cells in log phase growth. At indicated time points, cell cultures were washed with serum‐free, thymidine deficient medium, then incubated with fresh medium containing 1 μCi/ml of ^3H‐thymidine for two hours at 37°C. Cultures were washed twice with PBS while attached to dishes, then lysed with 0.5 M NaOH and the relative amount of ^3H‐thymidine quantified by scintillation counting.

U2OS cells [2] = assay: MTT cell proliferation/viability assay, telomerase negative U2OS; format: cell-based, human; conditions: 48 h
Description: (§2) MPPs were tested for effects on cell proliferation and viability using MTT (3‐(4,5‐dimethylthiazol‐2‐yl)‐2,5‐diphenyltetrazolium bromide) dye conversion assay (Cell Titer 96, Promega) as we described[22] with some modifications. Cells were plated into 96 well plates and allowed to attach overnight. MPPs were added to the cultures and then incubated for the times indicated. At assay time, MTT reagent was added and absorbance measured at 570 nm. Controls included buffer blanks containing MPP because of background absorbances reported for MPPs by us[22] and others.[23] The formula used for determination of viable cells relative to controls was: %viablecells=(abssample‐absblank)/(absconrtrol‐absblank)×100

Hek293 cells [3] = assay: MTT cell proliferation/viability assay, Hek293; format: cell-based, human; conditions: Hek293, 10 µM MPP, 48 h
Description: as §2

[4] = system: high molecular weight complexes containing telomerase; assay: Fluorescent labelling of cellular lysate complexes on non-denaturing 0.8% agarose gels; format: binding, human; conditions: Huh7 lysates, fluorescence visualization
Description: 0.8% Agarose gels were run in Tris‐Borate‐EDTA buffer using standard slab gels as described for high molecular weight complexes.[27] Cell lysates were produced by lysing Hek293 and Huh7 cells in NP40 buffer (25 mM HEPES‐KOH, 150 mM KCl, 1.5mM MgCl2, 10% glycerol, 0.5% NP40, 5 mM 2ME, pH 7.5 supplemented with protease inhibitors) for 30 min on ice. Extracts were clarified by centrifugation for 16 000 g for 10 min. The protein concentration was determined by Bradford assay. The indicated amounts of proteins were treated with different amounts of ZnPP for 2 h on ice, and then separated on 0.8% Agarose gels prepared with 0.5xTris‐Borate‐EDTA (TBE) buffer. The gels were run at 100 V for 2 h at 4 °C in 0.5x TBE buffer. […] No antibody and normal rabbit IgG (sc‐2027, Santa Cruz Biotechnology) were included as controls. The IP products were treated with ZnPP and electrophoresed as above. Free ZnPP and ZnPP bound to large complexes were visualized using a wide‐wavelength UV lightbox or with red fluorescence using excitation (EX) 608–632 nm and emission (EM) 675–720 nm. Thyroglobulin (670 kD), a heavy MW marker, was run in parallel lanes and visualized with Coomassie Blue staining or fluorescence to size the complexes. In some cases, cell lysates or IP were incubated with RNase A (Life Technologies, NY); or DNase 1 (Qiagen, CA) 100 µg/ml for 1 h at 4 °C prior to electrophoresis.

Huh7 cells [5] = assay: DNA synthesis, 3H-thymidine incorporation, Huh7; format: cell-based, human; conditions: Huh7, 10 µM MPP, 24–72 h
Description: as §1

[6] = system: TERT transfected U2OS cells; assay: MTT viability assay in U2OS cells transfected with human TERT; format: cell-based; conditions: U2OS transfected with pCI neo-hEST2, ZnPP 48 h
Description: Lipofectamine^T ^M 2000 (ThermoFisher) was used for all transfections and closely followed the manufacturer's protocol. For TERT overexpression the catalytically active TERT plasmid pCI neo‐hEST2, a gift from Dr. Robert Weinberg (Addgene plasmid # 1781)[19] was used. Telomerase RNA component (TERC) plasmid (pBS U3‐hTR‐500) was also obtained from Addgene (plasmid # 28170), a gift from Dr. Kathleen Collins.[20], [21]
as §2

Taq DNA polymerase = target: T1, Taq DNA polymerase (Thermus aquaticus, UniProt P19821); assay: Taq polymerase inhibition test, MPP added after the telomerase extension step of TRAP; format: biochemical; conditions: TRAP, MPP added for the amplification steps only
T1 construct: purchased Perkin‐Elmer Cetus, Norwalk, CT
T1 sequence (P19821 whole entry): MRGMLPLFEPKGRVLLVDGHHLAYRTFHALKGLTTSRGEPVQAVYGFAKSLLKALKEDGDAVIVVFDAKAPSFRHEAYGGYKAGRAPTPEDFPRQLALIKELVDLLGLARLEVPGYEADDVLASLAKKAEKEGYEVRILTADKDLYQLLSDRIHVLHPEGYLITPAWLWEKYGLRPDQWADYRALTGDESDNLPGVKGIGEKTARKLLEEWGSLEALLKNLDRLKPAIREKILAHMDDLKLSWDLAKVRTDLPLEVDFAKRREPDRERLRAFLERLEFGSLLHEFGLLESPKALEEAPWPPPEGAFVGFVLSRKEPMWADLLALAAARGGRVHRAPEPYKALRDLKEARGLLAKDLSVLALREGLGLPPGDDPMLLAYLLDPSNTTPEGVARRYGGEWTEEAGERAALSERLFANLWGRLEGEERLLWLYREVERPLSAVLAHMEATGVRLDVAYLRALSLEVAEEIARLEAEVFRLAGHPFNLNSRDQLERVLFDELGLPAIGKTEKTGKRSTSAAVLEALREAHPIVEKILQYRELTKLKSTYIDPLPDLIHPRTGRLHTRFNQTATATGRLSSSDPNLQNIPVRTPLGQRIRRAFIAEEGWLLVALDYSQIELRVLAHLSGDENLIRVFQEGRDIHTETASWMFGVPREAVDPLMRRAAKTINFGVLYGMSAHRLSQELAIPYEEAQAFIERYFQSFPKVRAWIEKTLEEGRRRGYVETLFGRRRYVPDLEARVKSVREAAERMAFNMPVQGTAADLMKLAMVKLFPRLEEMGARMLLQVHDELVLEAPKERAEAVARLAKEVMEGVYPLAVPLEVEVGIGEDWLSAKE
Description: For TRAP assay, a Quantitative Telomerase Detection Kit (US Biomax, Inc) was used to assay cellular lysates or TERT immunoprecipitates (IP) according to the manufacturer's directions. Relative telomerase activity was derived from a standard curve of reference samples and data were analyzed using relative fluorescence units as compared to controls. In some cases, telomerase reaction products were visualized and quantified with TRAPeze system (EMD/Millipore). After separation of the DNA products using 10% non‐denaturing PAGE and SYBR fluorescence labeling [1x SYBR safe DNA gel stain (Invitrogen)], gel bands were imaged with iBright 1500 (Invitrogen). The intensity of the sample's TRAP ladder and internal control was first measured using GelAnalyzer [GelAnalyzer 19.1 (www.gelanalyzer.com )] as recommended. Then, the relative telomerase activity was determined by the ratio of the intensity of the sample's TRAP ladder (telomerase products, TP) to that of the internal control (IC) band.
Because of concerns that some quadruplex ligands inhibit Taq DNA polymerase in addition to telomerase, we assayed MPP inhibition at both steps of the TRAP procedure with a strategy similar to that of others.[36] Using equivalent extracts but separate assays, MPP was either included in the telomerase RT extension step or the extension step was conducted without MPP and then MPP added only for the amplification steps with Taq DNA polymerase. To avoid further potential errors introduced by Real‐time quantification, TRAP products were labeled with SYBR green, visualized on denaturing gels, and each lane was quantified by density measurements as described in the Methods. The latter step also ruled out the possibility that decreases in activity were artifactual due to fluorescence signal quenching by some MPPs.[37] […] All three MPPs had minimal effects on Taq polymerase […] and the slight inhibition of Taq polymerase seen for ZnPP was not directly concentration‐dependent.
Enzymatic extracts were prepared from semi-confluent Huh7 cells and aliquots were assayed in triplicate using TRAP assay. CoPP was added to RT-PCR reactions either before or after the RT telomere elongation step to test whether it inhibited Taq polymerase. Visualization of amplified telomeric products was on 12% denaturing gels using SYBR fluorescence labelling (upper panels). Quantification was with densitometry as described in Methods and plot shown (lower panel). Plotted points represent the mean +/- SD with n =3. (IC)= internal Taq polymerase control.

[7] = system: TERT, β-catenin, and cyclin D1 expression; assay: Western blot of proliferative proteins in Huh7 cells; format: cell-based, human; conditions: Huh7, 48 h
Description: For SDS ‐PAGE, cellular lysates, and protein preparations such as IP were dissolved in Laemmli buffer, boiled for 1 min and separated on denaturing SDS gels as described.[28] After electrophoretic transfer of separated proteins to nitrocellulose sheets, western blot immunoassays employed enhanced chemiluminescence for signal detection (ECL^TM Prime, Amersham).[28]

Huh7 cells [8] = assay: MTT cell proliferation/viability assay, Huh7; format: cell-based, human; conditions: Huh7, 10 µM MPP, 48 h
Description: as §2

U2OS cells [9] = assay: Annexin V apoptosis assay, U2OS; format: cell-based, human; conditions: 48 h
Description: (§3) For detection of MPP apoptotic effects, cells were treated with MPPs (0, 2.5, 5 and 10 µM) for 48 h and assayed using PE Annexin V Apoptosis Detection Kit (Cat. No. 559763, BD Biosciences) as recommended by the manufacturer.

Huh7 cells [10] = assay: Annexin V apoptosis assay, Huh7; format: cell-based, human; conditions: Huh7, 10 µM, 48 h
Description: as §3

Hek293 cells [11] = assay: Annexin V apoptosis assay, Hek293; format: cell-based, human; conditions: Hek293, 10 µM, 48 h
Description: as §3

**Q.** With C=CC1=C(C)c2cc3[n-]c(cc4nc(cc5[n-]c(cc1n2)c(C)c5C=C)C(C)=C4CCC(=O)O)c(CCC(=O)O)c3C.[Zn+2] [ZnPP, zinc protoporphyrin] as the compound, how does the “Effect on DNA synthesis (3H-thymidine incorporation)” value (Hek293 cells [1]) read?
**A.** severely attenuated DNA synthesis

**Q.** And the “Effect on proliferation in telomerase negative cells” value (U2OS cells [2])?
**A.** only minor effects on proliferation

**Q.** And the “Depression of cellular proliferation relative to vehicle only controls” value (Hek293 cells [3])?
**A.** greater than 50%

**Q.** And the “Labelling/binding of cellular complexes on agarose gels” value [4]?
**A.** bound to high molecular weight complexes in a concentration dependent manner

**Q.** What about the “Effect on DNA synthesis (3H-thymidine incorporation)” value (Huh7 cells [5]) of the same compound?
**A.** severely attenuated DNA synthesis

**Q.** What about the “Sensitivity of viability after TERT transfection” value [6] of the same compound?
**A.** restored ZnPP sensitivity

**Q.** What about the “Effect on Taq polymerase” value (Taq DNA polymerase) of the same compound?
**A.** minimal inhibition

**Q.** What about the “Effect on expression of TERT, β-catenin and cyclin D1 (western blot)” value [7] of the same compound?
**A.** nearly eliminated

**Q.** And the “Depression of cellular proliferation relative to vehicle only controls” value (Huh7 cells [8])?
**A.** greater than 50%

**Q.** What about the “Effect on apoptosis in telomerase negative cells” value (U2OS cells [9]) of the same compound?
**A.** failed to have an increased effect on apoptosis

**Q.** And the Apoptosis (Huh7 cells [10])?
**A.** ~50%

**Q.** What about the Apoptosis (Hek293 cells [11]) of the same compound?
**A.** ~50%
